Data as given in BigSolDB 2.1.

N#Cc1cccc([N+](=O)[O-])c1
solubility (mole fraction)
Conditions	278.15 K	283.15 K	288.15 K	293.15 K	298.15 K	303.15 K	308.15 K	313.15 K	318.15 K
in acetic acid	–	–	–	0.0354	0.04	0.0459	0.0525	0.0608	0.0713
in acetone	0.0789	0.0905	0.106	0.123	0.142	0.164	0.187	0.213	0.242
in acetonitrile	0.0473	0.0565	0.0682	0.0814	0.0973	0.116	0.138	0.164	0.196
in cyclohexane	–	0.000365	0.000472	0.000599	0.000768	0.00097	0.00121	0.00153	0.00193
in ethanol	0.00312	0.0038	0.00473	0.00582	0.00715	0.00873	0.0106	0.013	0.0159
in ethyl acetate	0.0353	0.044	0.0565	0.0706	0.0876	0.109	0.135	0.166	0.203
in isobutanol	0.00162	0.00207	0.00265	0.0033	0.00409	0.00504	0.00624	0.00773	0.00959
in isopropanol	0.0017	0.00215	0.00274	0.0035	0.00446	0.00565	0.00711	0.00905	0.0114
in methanol	0.0041	0.00501	0.00622	0.0076	0.00926	0.0112	0.0134	0.0162	0.0195
in n-butanol	0.00233	0.00286	0.00349	0.00428	0.00538	0.00683	0.00848	0.0104	0.0129
in n-propanol	0.0025	0.00308	0.0038	0.00475	0.00592	0.0073	0.00897	0.0111	0.0135
in toluene	0.0259	0.0304	0.0374	0.0458	0.0557	0.067	0.0813	0.0982	0.119
